What was measured:
[1] = Solubility of free base in buffers of varying pH; assay type: physicochemical
Experimental: The solubility of a typical API (i.e., Compound 2 as disclosed herein) in free base form was evaluated in buffers of varying pH.

[2] = Stability of HCl salt at different temperatures for 8 hours; assay type: physicochemical
Experimental: The stability of a Compound 2 HCl salt at different temperatures for 8 hours is shown below. The initial purity at TO is 96.5%. […] Similar observation was also made for several other compounds of the invention.

## C=CC(=O)Nc1cc(Nc2nc(-c3ccnc(N4CCn5c(cc6c5CC(C)(C)C6)C4=O)c3CO)cn(C)c2=O)ccc1N1CCN(C2CCOCC2)C[C@@H]1C [Compound 2, N-(5-[[6-(2-[4,4-dimethyl-9-oxo-1,10-diazatricyclo[6.4.0.0^[2,6]]dodeca-2(6),7-dien-10-yl]-3-(hydroxymethyl)pyridin-4-yl)-4-methyl-3-oxopyrazin-2-yl]amino]-2-[(2S)-2-methyl-4-(oxan-4-yl)piperazin-1-yl]phenyl)prop-2-enamide]
[1]; 0.01N HCl
  Ave. Conc.: 55.52 mg/mL
[1]; Water
  Ave. Conc.: 0.09 mg/mL
[1]; pH 2.0
  Ave. Conc.: 9.67 mg/mL
[1]; pH 3.0
  Ave. Conc.: 2.07 mg/mL
[1]; pH 4.5
  Ave. Conc.: 1.81 mg/mL
[1]; pH 6.8
  Ave. Conc.: 0.02 mg/mL

## C=CC(=O)Nc1cc(Nc2nc(-c3ccnc(N4CCn5c(cc6c5CC(C)(C)C6)C4=O)c3CO)cn(C)c2=O)ccc1N1CCN(C2CCOCC2)C[C@@H]1C.Cl [Compound-2 HCl, N-(5-[[6-(2-[4,4-dimethyl-9-oxo-1,10-diazatricyclo[6.4.0.0^[2,6]]dodeca-2(6),7-dien-10-yl]-3-(hydroxymethyl)pyridin-4-yl)-4-methyl-3-oxopyrazin-2-yl]amino]-2-[(2S)-2-methyl-4-(oxan-4-yl)piperazin-1-yl]phenyl)prop-2-enamide hydrochloride]
[2]; 50° C., 8 hours
  Purity (%) at 8 h: 95.7%
[2]; 80° C., 8 hours
  Purity (%) at 8 h: 90.1%
[2]; 100° C., 8 hours
  Purity (%) at 8 h: 84.7%
[2]; different temperatures, 8 hours
  stability assessment of HCl salt: not sufficiently stable
[2]; stability study, at TO (start)
  initial purity: 96.5%

Source: US20230346779A1, “DOSAGE FORM COMPOSITIONS COMPRISING AN INHIBITOR OF BTK AND MUTANTS THEREOF” (Newave Pharmaceutical Inc., priority 2020, published 2023)
